From patent publication US7705030B2, “Amino-5-(5-membered)hetero-arylimidazolone compounds and the use thereof for β-secretase modulation” (Wyeth LLC, priority 2005, dated 2010)
Where a name gives a salt, the structure may show the parent alone.

Columns and labels:
human BACE1 = human BACE1 (Homo sapiens, UniProt P56817); assay: Fluorescent kinetic assay: Evaluation of BACE-1 Binding Affinity of Test Compounds; assay type: biochemical; conditions: 10 nM enzyme, 25 μM substrate WABC-6, 50 mM Na-Acetate pH 4.5, room temperature
Experimental: Evaluation of BACE-1 Binding Affinity of Test Compounds
Fluorescent Kinetic Assays
Final Assay Conditions: 10 nM human BACE1 (or 10 nM Murine BACE1, 1.5 nM human BACE2), 25 μM substrate (WABC-6, MW 1549.6, from AnaSpec), Buffer: 50 mM Na-Acetate, pH 4.5, 0.05% CHAPS, 25% PBS, room temperature. Na-Acetate was from Aldrich, Cat.# 24, 124-5, CHAPS was from Research Organics, Cat. # 1304C 1×, PBS was from Mediatech (Cellgro), Cat# 21-031-CV, peptide substrate Abz[…]pa was from AnaSpec, Peptide Name: WABC-6 Determination of stock substrate (Abz[…]pa) concentration: ˜25 mM stock solution is made in DMSO using the peptide weight and MW, and diluted to ˜25 μM (1:1000) in 1×PBS. Concentration is determined by absorbance at 354 nm using an extinction coefficient ε of 18172 M^−1 cm^−1, the concentration of stock substrate is corrected, and the substrate stock stored in small aliquots in −80° C. [Substrate Stock]=ABS^354 nm*10^6/18172 (in […]) The extinction coefficient ε^354 nm was adapted from TACE peptide substrate, which had the same quencher-fluorophore pair.
Determination of Stock Enzyme Concentration: the stock concentration of each enzyme is determined by absorbance at 280 nm using an ε of 64150 M^−1 cm^−1 for hBACE1 and MuBACE1, 62870 M^−1 cm^−1 for hBACE2 in 6 M Guanidinium Hydrochloride (from Research Organics, Cat. # 5134G-2), pH ˜6. The extinction coefficient ε^280 nm for each enzyme was calculated based on known amino acid composition and published extinction coefficients for Trp ([…]) and Tyr ([…]) residues (Anal. Biochem. 182, 319-326).
Dilution and mixing steps: total reaction volume: 100 μL
2× inhibitor dilutions in buffer A(66.7 mM Na-Acetate, pH 4.5, 0.0667% CHAPS) were prepared,
4× enzyme dilution in buffer A(66.7 mM Na-Acetate, pH 4.5, 0.0667% CHAPS) were prepared,
100 μM substrate dilution in 1×PBS was prepared, and
50 μL 2× Inhibitor, 25 μL 100 μM substrate are added to each well of 96-well plate (from DYNEX Technologies, VWR #: 11311-046), immediately followed by 25 μL 4× enzyme (added to the inhibitor and substrate mix), and the fluorescence readings are initiated.
Fluorescence Readings: Readings at λex 320 nm and λem 420 nm are taken every 40 sec for 30 min at room temperature and the linear slope for substrate cleavage rate (vi) determined.
Testing at least 10 different inhibitor concentrations is preferred.

Sequence of human BACE1 (P56817 46-501): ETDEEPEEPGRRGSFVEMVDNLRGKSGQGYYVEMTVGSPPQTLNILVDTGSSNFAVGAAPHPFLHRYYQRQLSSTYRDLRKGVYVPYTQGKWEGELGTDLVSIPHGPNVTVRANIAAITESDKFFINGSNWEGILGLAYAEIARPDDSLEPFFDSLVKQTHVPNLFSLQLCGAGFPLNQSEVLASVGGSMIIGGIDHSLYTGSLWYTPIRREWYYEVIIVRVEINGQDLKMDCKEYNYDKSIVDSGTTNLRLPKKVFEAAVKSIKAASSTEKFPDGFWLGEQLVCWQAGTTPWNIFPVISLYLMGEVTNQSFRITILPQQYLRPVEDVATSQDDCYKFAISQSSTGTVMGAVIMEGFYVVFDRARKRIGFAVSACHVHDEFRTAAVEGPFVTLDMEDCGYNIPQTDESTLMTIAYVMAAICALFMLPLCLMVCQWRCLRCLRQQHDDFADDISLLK

| Structure (SMILES) | IC50 (human BACE1) | melting point |
| --- | --- | --- |
| Cc1c(C2(c3cccc(-c4cccnc4F)c3)N=C(N)N(C)C2=O)cnn1CC(F)(F)F (centres unmarked) [Example 2, 2-Amino-5-[3-(2-fluoropyridin-3-yl)phenyl]-3-methyl-5-[5-methyl-1-(2,2,2-trifluoroethyl)-1H-pyrazol-4-yl]-3,5-dihydro-4H-imidazol-4-one] | 0.11 to 1 µM | 235 to 238 °C |
| CC(C)n1cc(C2(c3ccc(F)c(-c4cccnc4F)c3)N=C(N)N(C)C2=O)cn1 (centres unmarked) [Example 97] | 0.01 to 0.1 µM | 115 to 117 °C |
| CN1C(=O)C(c2cccc(-c3cncnc3)c2)(c2cc(C#N)n(CCF)c2)N=C1N (centres unmarked) [Example 228] | 0.11 to 1 µM | 193 to 194 °C |
| CN1C(=O)C(c2cc[nH]c2)(c2cccc(O)c2)N=C1N (centres unmarked) [Example 59, 2-amino-5-(3-hydroxyphenyl)-5-(1H-pyrrol-3-yl)-3-methyl-3,5-dihydro-4H-imidazol-4-one] | > 1 µM | 142 to 145 °C |
| CCCOc1cccc(C2(c3cccs3)N=C(N)N(C)C2=O)c1 (centres unmarked) [Example 141, 2-Amino-3-methyl-5-(3-propoxyphenyl)-5-thien-2-yl-3,5-dihydro-4H-imidazol-4-one] | 0.11 to 1 µM | 79 to 81 °C |
| COC(=O)c1cc([C@]2(c3ccc(F)c(-c4cncnc4)c3)N=C(N)N(C)C2=O)cn1CCF [Example 119A, Methyl 4-[(4S)2-Amino-4-(4-fluoro-3-pyrimidinyl-5-phenyl)-1-methyl-5-oxo-4,5-dihydro-1H-imidazol-4-yl]-1-(2-fluoroethyl)-1H-pyrrole-2-carboxylate] | 0.01 to 0.1 µM | 186 to 188 °C |
| CN1C(=O)C(c2cccc(-c3cncnc3)c2)(c2csc(Cl)c2)N=C1N (centres unmarked) [Example 32] | 0.01 to 0.1 µM | 236 to 240 °C |
| CCC1(c2cc(C3(c4cccc(-c5cncnc5)c4)N=C(N)N(C)C3=O)cs2)OCCO1 (centres unmarked) [Example 114] | 0.01 to 0.1 µM | 105 to 112 °C |
| CN1C(=O)C(c2cccc(Br)c2)(c2ccn(CC(F)(F)F)c2)N=C1N (centres unmarked) [Example 51, 2-Amino-5-(3-bromophenyl)-3-methyl-5-[1-(2,2,2-trifluoroethyl)-1H-pyrrol-3-yl]-3,5-dihydro-4H-imidazol-4-one] | – | 74 to 76 °C |
| CCn1ccc(C2(c3cccc(Br)c3)N=C(N)N(C)C2=O)c1 (centres unmarked) [Example 50, 2-Amino-5-(3-bromophenyl)-5-(1-ethyl-1H-pyrrol-3-yl)-3-methyl-3,5-dihydro-4H-imidazol-4-one] | – | 138 to 140 °C |
| CC(C)n1cc(C2(c3ccc(F)c(Br)c3)N=C(N)N(C)C2=O)cn1 (centres unmarked) [Example 95, 2-amino-5-(3-bromo-4-fluorophenyl)-5-(1-isopropyl-1H-pyrazol-4-yl)-3-methyl-3,5-dihydro-4H-imidazol-4-one] | – | 80 to 82 °C |
| CC(C)n1cc(C#Cc2ccc(F)c(Br)c2)cn1 [Example 94, 4-(3-bromo-4-fluorophenylethynyl)-1-isopropyl-1H-pyrazole] | 0.01 to 0.1 µM | – |
| CN1C(=O)C(c2cccc(Br)c2)(c2cnn(CC(F)(F)F)c2)N=C1N (centres unmarked) [Example 81, 2-amino-5-(3-bromophenyl)-3-methyl-5-[1-(2,2,2-trifluoroethyl)-1H-pyrazol-4-yl]-3,5-dihydro-4H-imidazol-4-one] | – | 80 to 82 °C |
| CC(C)n1cc(C2(c3ccc(F)c(-c4cncnc4)c3)N=C(N)N(C)C2=O)cn1 (centres unmarked) [Example 96] | – | 110 to 113 °C |
| COC(=O)c1cc([C@@]2(c3ccc(F)c(-c4cncnc4)c3)N=C(N)N(C)C2=O)cn1CC(F)(F)F [258 B] | > 1 µM | – |
| CCC1(c2cc(C3(c4cccc(-c5cccnc5F)c4)N=C(N)N(C)C3=O)cs2)OCCO1 (centres unmarked) [Example 113] | – | 93 to 103 °C |

Results, then the molecule that gave them:

| IC50 (human BACE1) | melting point | Structure (SMILES) |
| --- | --- | --- |
| – | 98 to 112 °C | CCC(=O)c1cc(C2(c3cccc(-c4cccnc4F)c3)N=C(N)N(C)C2=O)cs1 (centres unmarked) [Example 115, 2-Amino-5-[3-(2-fluoro-pyridin-3-yl)-phenyl]-3-methyl-5-(5-propionyl-thiophen-3-yl)-3,5-dihydro-imidazol-4-one] |
| 0.01 to 0.1 µM | 105 °C | CCC(=O)c1cc(C2(c3cccc(-c4cccnc4F)c3)N=C(N)N(C)C2=O)cn1CCCCF (centres unmarked) [Example 178] |
| 0.01 to 0.1 µM | 88 to 92 °C | CCCCn1cc(C2(c3cccc(-c4cccnc4F)c3)N=C(N)N(C)C2=O)cn1 (centres unmarked) [Example 4, 2-Amino-5-(1-butyl-1H-pyrazol-4-yl)-5-[3-(2-fluoropyridin-3-VI)phenyl]-3-methyl-3,5-dihydro-4H-imidazol-4-one] |
| 0.01 to 0.1 µM | 71 to 73 °C | CCCCCC(=O)c1cc(C2(c3cccc(-c4cccnc4F)c3)N=C(N)N(C)C2=O)cn1CC (centres unmarked) [Example 169] |
| 0.01 to 0.1 µM | 198 to 201 °C | CCn1cc(C2(c3cccc(-c4cccnc4F)c3)N=C(N)N(C)C2=O)cc1C=O (centres unmarked) [Example 233, 4-[2-amino-4-[3-(2-fluoropyridin-3-yl)phenyl]-1-methyl-5-oxo-4,5-dihydro-1H-imidazol-4-yl]-1-ethyl-1H-pyrrole-2-carbaldehyde] |
| 0.11 to 1 µM | 213 to 220 °C | CN1C(=O)C(c2cccc(-c3cccnc3F)c2)(c2cc(C#N)n(C)c2)N=C1N (centres unmarked) [Example 226] |
| 0.01 to 0.1 µM | 170 to 172 °C | CCn1cc(C2(c3cccc(-c4cccnc4F)c3)N=C(N)N(C)C2=O)cc1CO (centres unmarked) [Example 239, 2-Amino-5-[1-ethyl-5-(hydroxymethyl)-1H-pyrrol-3-yl]-5-[3-(2-fluoropyridin-3-yl)phenyl]-3-methyl-3,5-dihydro-4H-imidazol-4-one] |
| 0.01 to 0.1 µM | 94 to 97 °C | CCC(=O)c1cc([C@]2(c3cccc(-c4cccnc4F)c3)N=C(N)N(C)C2=O)cn1CC [Example 185, (5S)-2-Amino-5-(1-ethyl-5-propionyl-1H-pyrrol-3-yl)-5-[3-(2-fluoropyridin-3-yl)phenyl]-3-methyl-3,5-dihydro-4H-imidazol-4-one] |
| 0.01 to 0.1 µM | 98 to 102 °C | CCC(=O)c1cc(C2(c3cccc(-c4cccnc4F)c3)N=C(N)N(C)C2=O)cn1CC(C)C (centres unmarked) [Example 179] |
| 0.01 to 0.1 µM | 69 °C | C=CCCCOc1cccc(C2(c3cc(C(=O)CC)n(CC)c3)N=C(N)N(C)C2=O)c1 (centres unmarked) [Example 140] |
| 0.01 to 0.1 µM | 193 to 195 °C | CCn1cc(C2(c3ccc(F)c(-c4cccnc4F)c3)N=C(N)N(C)C2=O)cc1S(C)(=O)=O (centres unmarked) [Example 188, 2-Amino-5-[1-ethyl-5-(methylsulfonyl)-1H-pyrrol-3-yl]-5-[4-fluoro-3-(2-fluoropyridin-3-yl)phenyl]-3-methyl-3,5-dihydro-4H-imidazol-4-one] |
| – | 190 to 193 °C | CCn1cc(C2(c3cccc(-c4cccnc4F)c3)N=C(N)N(C)C2=O)cc1/C=N/OC (centres unmarked) (as salt: hydrochloride) [Example 241, 4-[2-Amino-4-[3-(2-fluoropyridin-3-yl)phenyl]-1-methyl-5-oxo-4,5-dihydro-1H-imidazol-4-yl]-1-ethyl-1H-pyrrole-2-carbaldehyde O-methyloxime hydrochloride] |
| > 1 µM | – | CCC(=O)c1cc([C@@]2(c3cccc(-c4cccnc4F)c3)N=C(N)N(C)C2=O)cn1CCCC(F)(F)F [252 B] |
| 0.01 to 0.1 µM | – | CCC(=O)c1cc([C@]2(c3cccc(-c4cccnc4F)c3)N=C(N)N(C)C2=O)cn1CCCCF [250 A] |
| 0.01 to 0.1 µM | – | CCn1cc([C@]2(c3cccc(-c4cccnc4F)c3)N=C(N)N(C)C2=O)cc1C=O [Example 247, 4-{(4S)-2-Amino-4-[3-(2-fluoropyridin-3-yl)phenyl]-1-methyl-5-oxo-4,5-dihydro-1H-imidazol-4-yl}-1-ethyl-1H-pyrrole-2-carbaldehyde] |
| > 1 µM | – | CCC(=O)c1cc([C@@]2(c3cccc(-c4cccnc4F)c3)N=C(N)N(C)C2=O)cn1CCCF [255 B] |
| > 1 µM | – | CCC(=O)c1cc([C@@]2(c3cccc(-c4cccnc4F)c3)N=C(N)N(C)C2=O)cn1CCCCF [250 B] |
| > 1 µM | – | CCC(=O)c1cc([C@@]2(c3cccc(-c4cccnc4F)c3)N=C(N)N(C)C2=O)cn1CC(F)F [253 B] |
| 0.01 to 0.1 µM | – | CCC(=O)c1cc([C@]2(c3cccc(-c4cccnc4F)c3)N=C(N)N(C)C2=O)cn1CCCC(F)(F)F [252 A] |
